Measurements published in PubChem BioAssay (NCI).
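Five concentrations, 48 hours, 96-well plates. GI50 marks 50% less growth. Definition used: TGI = concentration required for complete inhibition of growth.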

Assays:
Test in all cases: NCI anticancer screen, dose series, 48 h
TK-10 renal = tested on: TK-10 renal
SNB-19 CNS = tested on: SNB-19 CNS
OVCAR-5 ovarian = tested on: OVCAR-5 ovarian
BT-549 breast = tested on: BT-549 breast
NCI-H522 lung = tested on: NCI-H522 lung
HS 578T breast = tested on: HS 578T breast
SF-295 CNS = tested on: SF-295 CNS
U251 CNS = tested on: U251 CNS
SK-MEL-5 melanoma = tested on: SK-MEL-5 melanoma
SR leukemia = tested on: SR leukemia

Row | SMILES | TGI (TK-10 renal) | TGI (SNB-19 CNS) | TGI (OVCAR-5 ovarian) | TGI (BT-549 breast) | TGI (NCI-H522 lung) | TGI (HS 578T breast) | TGI (SF-295 CNS) | TGI (U251 CNS) | TGI (SK-MEL-5 melanoma) | GI50 (TK-10 renal) | GI50 (SNB-19 CNS) | GI50 (SR leukemia) | TGI (SR leukemia) | GI50 (OVCAR-5 ovarian) | GI50 (NCI-H522 lung) | GI50 (HS 578T breast) | GI50 (SF-295 CNS) | GI50 (U251 CNS) | GI50 (SK-MEL-5 melanoma) | GI50 (BT-549 breast)
1 | O=[N+]([O-])c1cc(Cc2cc([N+](=O)[O-])c3cccnc3c2O)c(O)c2ncccc12 | 48.3 µM | 51.2 µM | 76.1 µM | > 77.7 µM | 38 µM | 52.1 µM | 37.2 µM | 19.1 µM | 24.5 µM |  |  |  |  |  |  |  |  |  |  | 
2 | Cc1ccc(-n2c(-c3cc4c([nH]c5ccccc54)c(-c4cccc(O)c4)n3)n[nH]c2=S)cc1 | 16.2 µM | 3.7 µM | 17.1 µM |  | 5.27 µM | 36.2 µM | 3.12 µM | 2.22 µM | 3.31 µM | 3.68 µM | 0.403 µM | 0.443 µM | 2.07 µM | 3.73 µM | 0.861 µM | 1.74 µM | 1.11 µM | 0.371 µM | 1.32 µM | 
3 | CCOC(=O)C(Cc1ccc(N(CCCl)CCCl)cc1)NC(=O)C(Cc1ccccc1)NC(C)=O (configuration not stated) | > 0.325 µM | > 0.578 µM | > 0.435 µM | > 0.798 µM |  | > 1 µM | > 0.501 µM | > 0.787 µM | > 0.486 µM |  |  |  | > 1 µM |  |  |  |  |  |  | 
4 | O=S(=O)(NCCCNc1nccc(-c2c(-c3ccc(F)cc3)nc3sccn23)n1)c1ccc(F)cc1 | > 100 µM | > 100 µM | > 100 µM | 31.2 µM | > 100 µM | > 100 µM | > 100 µM | > 100 µM | 57.9 µM | 19.2 µM | 62.1 µM |  |  | > 100 µM | 10 µM | 9.66 µM | 20.6 µM | 8.87 µM | 4.63 µM | 3.9 µM
5 | O=C1/C(=C/c2ccccc2O)N=C(c2ccccc2)N1c1cc(C(F)(F)F)ccc1Cl | 43.7 µM | > 100 µM | > 100 µM |  | > 100 µM | 60.3 µM | 52.6 µM | 61.9 µM | > 100 µM | 18.9 µM | 31.6 µM | 5.51 µM | > 100 µM | > 100 µM | 48.4 µM | 22.8 µM | 23.2 µM | 23.3 µM | 62.2 µM | 
6 | O=C1C(Sc2ccc3ccccc3c2)=C(Sc2ccc3ccccc3c2)C(=O)c2ccccc21 |  | 20.3 µM | 27.1 µM | 83.2 µM | 10.6 µM | 62.3 µM |  | 19.1 µM | 12.4 µM |  |  |  |  |  |  |  |  |  |  | 
7 | COC(=O)c1cc([N+](=O)[O-])cc([N+](=O)[O-])c1Cl | 6.48 µM | 34.5 µM | 10.2 µM | 22.6 µM | 3.31 µM | 5.86 µM | 36.9 µM | 4.78 µM | 10.9 µM | 2.48 µM | 17.4 µM |  |  | 2.7 µM | 1.82 µM | 2.28 µM | 19.3 µM | 2.14 µM | 3.03 µM | 10.7 µM
